Data as given in patent US7001770B1, “Calpain inhibitors and their applications” (priority 1998, dated 2006).
Square brackets hold non-standard residues; d marks the D form. Peptide text beside a SMILES is read from it. Nle = CCCC[C@H](N)C(=O)O

Key:
Type in all cases: cell-based
[1] = system: p53 and p21 protein levels in HLF cells; test: Western blot of p53 and p21 levels; conditions: 17 hours
Method: (§1) FIG. 5 contains the results of Western blots measuring the levels of p53 and p21 in rAd-p53 infected cells in the presence of varying concentrations of CI-1. Above each lane is a “+” of “−” which indicates if the cells were pulsed with 1×10^9 rAd-p53 for one hour (+) or not (−). The row of numbers below indicates the μM concentration of CI-1 to which the cells were exposed at 17 hours post-infection. The upper row of chemiluminescent signals provides the levels of p53 while the lower row of chemiluminescent signals provides the levels of p21. […] When 5 μM CI-1 was added with rAd-p53, the levels of p53 increased two fold, as quantitated on NIH imaging.
(§2) At 17 hours post treatment, cells were lysed in protein lysis buffer (50 mM tris, 250 mM NaCl, 50 mM NaF, 5 mM EDTA and 0.1% NP-40 with 1 mM PMSF). Cell lysates were subjected to electrophoresis. 10 μg of protein was added per lane on a 12% polyacrylamide gel and transfered onto nitrocellulose membranes. The membranes were subjected to western blot analysis using antibodies specific for p53 or p21 (Calbiochem, p53 antibody Ab-6, and p21 antibody Ab-7). HRP-conjugated secondary antibody (Amersham) was added for one hour at which time the blots were washed. Blots were developed using enhanced chemiluminescence detection system (Amersham) and quantitated using NIH imaging analysis.

[2] = system: p53 and p21 protein levels in RKO cells; test: Western blot of p53 and p21 levels; conditions: 17 hours
Method: as §1, §2

HLF cells = test: Infectivity: copies of rAd-p53 DNA by PCR
Method: The effects of the use of calpain inhibitors, particularly CI-1, were investigated in their ability to increase the infectivity of the HLF tumor cell line to rAd-p53. HLF cell lines were prepared in substantial accordance with the teaching of example 6 herein. The cells were exposed to two concentrations of rAd-p53 in the presence and absence of 10 μM CI-1. The total number of copies of rAd-p53 DNA were determined by PCR as described in Example 6. The results of these experiments are presented in Table 4 below and in graphical form in FIG. 7 of the attached drawings.
A similar experiment was conducted to determine the effect of pre-treatment of the cells with the calpain inhibitor. The cell lines were prepared as indicated above. In this experiment, one group of cells was pretreated with a 10 μM concentration of CI-1 for a period of 6 hours prior to exposure to the Ad-p53. The control sample was not pretreated. The results of these experiments are presented in Table 5 below and in graphical form in FIG. 7 of the attached drawings.
The following materials were obtained from Perkin Elmer Corporation under Part No. N808-0028: Gene Amp 10× Taqman Buffer A, 25 mM MgCl2, 5 μM Oligonucleotide Primer “A”, 5 μM Oligonucleotide Primer “B”, 5 units/mL AmpliTaq® Gold DNA Polymerase, 10 μM Taqman Probe. Deoxynucleotide Triphosphates, dATP, dCTP, and dGTP are 10 mM. dUTP is 20 mM. […]

CCCC[C@@H](C=O)NC(=O)[C@H](CC(C)C)NC(=O)[C@H](CC(C)C)NC(C)=O [CI-1, N-acetyl-leu-leu-norleucinal] (Ac-Leu-Leu-[Nle]-aldehyde)
increase in levels of p53 (NIH imaging) ([1]; 5 μM CI-1 added with 1×10^9 rAd-p53, versus rAd-p53 alone): two fold | increase in levels of p53 and p21 ([1]; 10 μM CI-1 added with 1×10^9 rAd-p53): approximately three fold | increase in p53 and p21 levels ([2]; 5 μM CI-1 with 1×10^9 rAd-p53): two fold increase | increase in p53 levels over rAd-p53 alone ([2]; 10 μM CI-1 with 1×10^9 rAd-p53): about a five fold increase | increase in intracellular viral DNA (HLF cells; 10 μM CI-1, no pre-treatment, viral concentration 1×10^7 and 1×10^8 particles): 50 fold | infectivity of the cells to the virus relative to untreated cells (HLF cells; 6 hour pretreatment with 10 μM CI-1, ACN53 3×10^7): approximately 130 times
